Molecular target: eIF4E (Homo sapiens (Human), UniProt P06730)
Test: TR-FRET assay for competitive binding of cap analogs to eIF4E
Conditions: N7-alkylated GDP derivatives; single measurement unless noted (a = average over 2 measurements); read-out: AC50/μM
Description: His tagged eIF4E protein was purchased from Fitzgerald Industries International (80R-125; Acton, Mass.) and tRNA was purchased from SIGMA (R5636; St. Louis, Mo.). A biotinylated 20 nucleotide RNA oligo (5′Phos/rGrGrA rCrCrC rCrUrC rUrCrC rCrUrC rCrCrC rCrC biotin-3′) was purchased from Integrated DNA Technologies (Coralville, Iowa). Europium labelled anti his antibody was purchased from Perkin Elmer (ADOI 10; Waltham, Mass.) and streptavidin conjugated alexa fluor 647 was purchased from Life Technologies (S32357; Grand Island, N.Y.).
The TR-FRET assay was performed in an assay buffer of PBS (pH 7.4), 0.02% Tween, and 0.1% BSA using four separate addition steps. Initially, 5 μl of His-eIF4E (10 nM) and tRNA (0.1 mg/ml) were added into a black walled 384 well small volume plate. Next, 1 al/well of freshly diluted compound was added using the Beckman Coulter Biomek FX liquid dispenser with a final DMSO concentration of 1%. The compound and eIF4E were allowed to bind for 15 minutes at room temperature. The third addition consisted of adding 4 μl of chemically capped 7mGDP imidazole mRNA-biotin (10 nM) into every well, with the exception of one column containing only buffer to use as a background control. The binding reaction was incubated for one hour at room temperature. Finally, 5 al of the europium-labeled anti-His antibody (10 nM) and streptavidin conjugated alexa fluor 647 (10 nM) TR-FRET detection reagents were added to each well and allowed to incubate at room temperature protected from light for 1 h. The plates were read on the Envision plate reader (Perkin-Elmer) to measure signals from both the Alexa fluor (665 nm) and the europium (615 nm). A ratio of the alexa fluor and europium fluorescence as a function of cap analog concentration was calculated for data analysis and data were fit to a standard EC50 inhibition curve in Graph Pad.

Chain of eIF4E (P06730 whole entry): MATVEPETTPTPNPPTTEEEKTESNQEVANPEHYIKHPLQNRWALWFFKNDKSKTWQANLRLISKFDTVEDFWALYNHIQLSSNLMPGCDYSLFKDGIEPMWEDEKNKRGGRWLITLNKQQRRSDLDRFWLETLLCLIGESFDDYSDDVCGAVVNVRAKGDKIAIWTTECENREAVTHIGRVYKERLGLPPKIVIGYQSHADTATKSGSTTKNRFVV

Nc1nc([O-])c2c(n1)n([C@@H]1O[C@H](COP(=O)(O)OP(=O)(O)O)[C@@H](O)[C@H]1O)c[n+]2C(c1ccccc1)c1ccccc1 [Example 16] gave an AC50 of 47.1 µM.

Same assay, conditions: N^7-alkylated GMP derivatives; competition with capped 7mGDP mRNA-biotin; single measurement unless footnoted as average; read-out: AC50

Compared with CCc1ccc2nonc2c1 [Example 70], CCc1ccc2cnn(C)c2c1 [Example 73] is higher in AC50: 23.7 µM for the first, over 100 µM for the second.

Compared with CCc1ccc(-c2noc(C)n2)cc1 [Example 63], CCc1ccc(-c2nc(C)no2)cc1 [Example 61] is lower in AC50: over 100 µM for the first, 16.7 µM for the second.

CCc1cccc2c1cnn2C [Example 72] and CCc1ccc2c(cnn2C)c1 [Example 74] cannot be ordered by AC50: over 100 µM for the first, over 100 µM for the second.

CCc1nc2ccccc2s1 [Example 68] and CCc1cc2ccccc2s1 [Example 69] are within 1.5-fold of each other in AC50: 52.9 µM for the first, 63.2 µM for the second.

First: CCc1ccc(-c2ccccc2)cc1 [Example 65]
Second: CCc1ccc(-c2ccccc2OC)cc1 [Example 62]
The AC50 of the first is lower: 29 µM for the first, over 100 µM for the second.

First: CCc1ncc(-c2ccc(F)cc2)o1 [Example 64]
Second: CCc1ccc(-c2cccs2)nc1 [Example 66]
The AC50 of the first is higher: over 100 µM for the first, 5.91 µM for the second.

First: CCc1ccc(-c2ccc(C(C)=O)cc2)cc1 [Example 60]
Second: CCc1ccc(-c2ccsc2)cc1 [Example 67]
The AC50 of the first is higher: over 100 µM for the first, 2.69 µM for the second.

Compound CCc1nc2ccccc2n1C [Example 71] has an AC50 of over 100 µM.
